Test results published in patent publication US8329904B2, “Azacyclic derivatives” (Hoffmann-La Roche Inc., priority 2009, dated 2012).

Target: T1, human HSL (Homo sapiens, UniProt Q05469)
T1 construct: overlapping PCR to generate a full length human HSL ORF with a 3′-His6 tag; His6 (C); made in house; host or cells: High 5 insect cells (baculovirus, pFast-BAC)
T1 sequence (Q05469 1-1076): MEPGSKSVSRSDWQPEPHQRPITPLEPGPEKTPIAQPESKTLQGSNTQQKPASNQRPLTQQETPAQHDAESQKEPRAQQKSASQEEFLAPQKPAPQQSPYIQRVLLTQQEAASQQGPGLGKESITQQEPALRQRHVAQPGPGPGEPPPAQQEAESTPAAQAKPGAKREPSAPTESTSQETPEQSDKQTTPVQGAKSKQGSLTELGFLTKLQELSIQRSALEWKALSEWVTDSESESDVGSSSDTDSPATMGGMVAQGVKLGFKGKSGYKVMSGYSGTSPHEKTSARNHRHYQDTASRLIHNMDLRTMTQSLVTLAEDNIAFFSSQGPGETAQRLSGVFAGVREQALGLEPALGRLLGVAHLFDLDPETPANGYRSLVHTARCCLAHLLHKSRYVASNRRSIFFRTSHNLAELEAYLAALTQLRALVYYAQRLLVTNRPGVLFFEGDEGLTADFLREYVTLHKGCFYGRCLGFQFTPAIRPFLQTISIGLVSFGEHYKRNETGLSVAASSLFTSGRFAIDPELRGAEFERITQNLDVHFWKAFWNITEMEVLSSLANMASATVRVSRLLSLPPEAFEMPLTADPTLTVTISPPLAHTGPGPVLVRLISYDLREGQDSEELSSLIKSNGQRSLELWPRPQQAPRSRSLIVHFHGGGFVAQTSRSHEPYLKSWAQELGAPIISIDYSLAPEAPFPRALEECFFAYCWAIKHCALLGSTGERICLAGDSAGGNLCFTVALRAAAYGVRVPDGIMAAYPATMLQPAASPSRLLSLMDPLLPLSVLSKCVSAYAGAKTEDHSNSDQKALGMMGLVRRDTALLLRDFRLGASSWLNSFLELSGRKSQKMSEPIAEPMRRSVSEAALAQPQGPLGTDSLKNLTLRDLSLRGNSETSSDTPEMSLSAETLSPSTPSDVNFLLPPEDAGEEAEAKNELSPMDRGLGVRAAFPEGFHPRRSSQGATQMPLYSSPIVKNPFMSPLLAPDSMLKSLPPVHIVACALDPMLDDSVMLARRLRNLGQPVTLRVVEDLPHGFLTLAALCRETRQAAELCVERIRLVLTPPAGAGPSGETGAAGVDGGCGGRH
Assay: Human Hormone-Sensitive Lipase (HSL) Enzyme Inhibition Assay
Format: biochemical
Conditions: colorimetric assay, 2,3-dimercapto-1-propanol tributyrate (DMPT) substrate, 37° C. for 20 minutes, absorbance at 405 nm; read-out: HSL hum IC50
How it was run: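 Colorimetric thioester hydrolysis: compounds in DMSO series mixed with DMPT (1.5 mM) in MOPS pH 7.2 with BSA, then baculovirus-expressed His6-tagged full-length human HSL added, 37° C, 20 min. DTNB plus detergents added, 15 min room temperature, absorbance at 405 nm.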

IC50 [nM] | SMILES
110 | CC(C)(C)CS(=O)(=O)N1CCC2(CCN(c3ccc(OS(C)(=O)=O)cc3)C2=O)CC1 [Example 53, Methanesulfonic acid 4-[8-(2,2-dimethyl-propane-1-sulfonyl)-1-oxo-2,8-diaza-spiro[4.5]dec-2-yl]-phenyl ester]
50 | COC(CS(=O)(=O)N1CCC2(CCN(c3ccc(OC(F)(F)F)cc3)C2=O)CC1)C1CC1 (centres unmarked) [Example 209, 8-(2-Cyclopropyl-2-methoxy-ethanesulfonyl)-2-(4-trifluoromethoxy-phenyl)-2,8-diaza-spiro[4.5]decan-1-one]
80 | Cc1nc(Cc2ccc(N3CCC4(CCN(S(=O)(=O)c5ccccc5Cl)CC4)C3=O)cc2)no1 [Example 136, 8-(2-Chloro-benzenesulfonyl)-2-[4-(5-methyl-[1,2,4]oxadiazol-3-ylmethyl)-phenyl]-2,8-diaza-spiro[4.5]decan-1-one]
270 | CC(C)CS(=O)(=O)N1CCC2(CCN(c3ccc(OCC4CC4)cc3)C2=O)CC1 [Example 94, 2-(4-Cyclopropylmethoxy-phenyl)-8-(2-methyl-propane-1-sulfonyl)-2,8-diaza-spiro[4.5]decan-1-one]
80 | Nc1ncccc1S(=O)(=O)N1CCC2(CCN(c3ccc(OC(F)(F)F)cc3)C2=O)CC1 [Example 197, 8-(2-Amino-pyridine-3-sulfonyl)-2-(4-trifluoromethoxy-phenyl)-2,8-diaza-spiro[4.5]decan-1-one]
50 | CCN(C(=O)N1CCC2(CC1)CCN(c1ccc(OC(F)(F)F)cc1)C2=O)c1cccc(C)c1 [Example 308, 1-Oxo-2-(4-trifluoromethoxy-phenyl)-2,8-diaza-spiro[4.5]decane-8-carboxylic acid ethyl-m-tolyl-amide]
20 | COCCc1ccc(N2CCC3(CCN(S(=O)(=O)c4ccccc4OC(F)(F)F)CC3)C2=O)cc1 [Example 105, 2-[4-(2-Methoxy-ethyl)-phenyl]-8-(2-trifluoromethoxy-benzenesulfonyl)-2,8-diaza-spiro[4.5]decan-1-one]
120 | CCN(C(=O)N1CCC2(CC1)CCN(c1ccc(OC(F)(F)F)cc1)C2=O)c1ccc(Cl)cc1 [Example 309, 1-Oxo-2-(4-trifluoromethoxy-phenyl)-2,8-diaza-spiro[4.5]decane-8-carboxylic acid (4-chloro-phenyl)-ethyl-amide]
820 | Cc1nc(C(=O)N2CCC3(CC2)CCN(c2ccc(OC(F)(F)F)cc2)C3=O)cs1 [Example 224, 8-(2-Methyl-thiazole-4-carbonyl)-2-(4-trifluoromethoxy-phenyl)-2,8-diaza-spiro[4.5]decan-1-one]
90 | O=C1N(c2ccc(CC(F)(F)F)cc2)CCC12CCN(S(=O)(=O)c1ccc(F)cc1C(F)(F)F)CC2 [Example 81, 8-(4-Fluoro-2-trifluoromethyl-benzenesulfonyl)-2-[4-(2,2,2-trifluoro-ethyl)-phenyl]-2,8-diaza-spiro[4.5]decan-1-one]
20 | O=C1N(c2ccc(C3(O)CCC3)cc2)CCC12CCN(S(=O)(=O)c1ccccc1Cl)CC2 [Example 231, 8-(2-Chloro-benzenesulfonyl)-2-[4-(1-hydroxy-cyclobutyl)-phenyl]-2,8-diaza-spiro[4.5]decan-1-one]
100 | CC(O)c1ccc(N2CCC3(CCN(S(=O)(=O)c4ccccc4Cl)CC3)C2=O)cc1 (centres unmarked) [Example 153, 8-(2-Chloro-benzenesulfonyl)-2-[4-(1-hydroxy-ethyl)-phenyl]-2,8-diaza-spiro[4.5]decan-1-one]
50 | O=C1N(CCc2ccccc2)CCC12CCN(S(=O)(=O)c1ccccc1Cl)CC2 [Example 236, 8-(2-Chloro-benzenesulfonyl)-2-phenethyl-2,8-diaza-spiro[4.5]decan-1-one]
140 | CC(Oc1ccc(N2CCC3(CCN(C(=O)C4(C)CC4(Cl)Cl)CC3)C2=O)cc1)C(F)(F)F (centres unmarked) [Example 113, 8-(2,2-Dichloro-1-methyl-cyclopropanecarbonyl)-2-[4-(2,2,2-trifluoro-1-methyl-ethoxy)-phenyl]-2,8-diaza-spiro[4.5]decan-1-one]
80 | CC(C)(C)CC(=O)N1CCC2(CC1)CCN(c1ccc(CC(F)(F)F)cc1)C2=O [Example 40, 8-(3,3-Dimethyl-butyryl)-2-[4-(2,2,2-trifluoro-ethyl)-phenyl]-2,8-diaza-spiro[4.5]decan-1-one]
180 | CCc1ccc(N2CCC3(CCN(C(=O)N4CCCCC4)CC3)C2=O)cc1 [Example 255, 2-(4-Ethyl-phenyl)-8-(piperidine-1-carbonyl)-2,8-diaza-spiro[4.5]decan-1-one]
50 | CCc1ccc(N2CCC3(CCN(S(=O)(=O)c4cccs4)CC3)C2=O)cc1 [Example 29, 2-(4-Ethyl-phenyl)-8-(thiophene-2-sulfonyl)-2,8-diaza-spiro[4.5]decan-1-one]
310 | CCc1ccc(N2CCC3(CCN(C(=O)NCc4ccc(F)cc4)CC3)C2=O)cc1 [Example 260, 2-(4-Ethyl-phenyl)-1-oxo-2,8-diaza-spiro[4.5]decane-8-carboxylic acid 4-fluoro-benzylamide]
320 | O=C(CCl)N1CCC2(CC1)CCN(c1ccc(OC(F)(F)F)cc1)C2=O [Example 225, 8-(2-Chloro-acetyl)-2-(4-trifluoromethoxy-phenyl)-2,8-diaza-spiro[4.5]decan-1-one]
20 | CC(O)(c1ccc(N2CCC3(CCN(S(=O)(=O)c4ccccc4Cl)CC3)C2=O)cc1)C(F)(F)F (centres unmarked) [Example 155, 8-(2-Chloro-benzenesulfonyl)-2-[4-(2,2,2-trifluoro-1-hydroxy-1-methyl-ethyl)-phenyl]-2,8-diaza-spiro[4.5]decan-1-one]
170 | COc1ccncc1S(=O)(=O)N1CCC2(CCN(c3ccc(OC(F)(F)F)cc3)C2=O)CC1 [Example 200, 8-(4-M ethoxy-pyridine-3-sulfonyl)-2-(4-trifluoromethoxy-phenyl)-2,8-diaza-spiro[4.5]decan-1-one]
80 | O=C1N(c2ccc(C3CC3)cc2)CCC12CCN(S(=O)(=O)c1ccccc1C(F)(F)F)CC2 [Example 71, 2-(4-Cyclopropyl-phenyl)-8-(2-trifluoromethyl-benzenesulfonyl)-2,8-diaza-spiro[4.5]decan-1-one]
60 | O=C1N(c2ccc(OCC(F)(F)F)cc2)CCC12CCN(S(=O)(=O)c1ccccc1)CC2 [Example 26, 8-Benzenesulfonyl-2-[4-(2,2,2-trifluoro-ethoxy)-phenyl]-2,8-diaza-spiro[4.5]decan-1-one]
470 | CCC(C)(O)CC(=O)N1CCC2(CC1)CCN(c1ccc(OC(F)(F)F)cc1)C2=O (centres unmarked) [Example 215, 8-(3-Hydroxy-3-methyl-pentanoyl)-2-(4-trifluoromethoxy-phenyl)-2,8-diaza-spiro[4.5]decan-1-one]
110 | Cc1noc(C)c1S(=O)(=O)N1CCC2(CCN(c3ccc(OC(C)C)cc3)C2=O)CC1 [Example 111, 8-(3,5-Dimethyl-isoxazole-4-sulfonyl)-2-(4-isopropoxy-phenyl)-2,8-diaza-spiro[4.5]decan-1-one]
170 | CCN(Cc1ccccc1)C(=O)N1CCC2(CC1)CCN(c1ccc(OC(F)(F)F)cc1)C2=O [Example 310, 1-Oxo-2-(4-trifluoromethoxy-phenyl)-2,8-diaza-spiro[4.5]decane-8-carboxylic acid benzyl-ethyl-amide]
60 | O=C1N(c2ccc(OCC(F)(F)F)cc2)CCC12CCN(S(=O)(=O)c1cccnc1)CC2 [Example 205, 8-(Pyridine-3-sulfonyl)-2-[4-(2,2,2-trifluoro-ethoxy)-phenyl]-2,8-diaza-spiro[4.5]decan-1-one]
90 | N#CCc1ccc(N2CCC3(CCN(S(=O)(=O)c4ccccc4Cl)CC3)C2=O)cc1 [Example 135, {4-[8-(2-Chloro-benzenesulfonyl)-1-oxo-2,8-diaza-spiro[4.5]dec-2-yl]-phenyl}-acetonitrile]

SMILES | IC50 [nM]
CCCCOc1ccc(N2CCC3(CCN(S(=O)(=O)CC(C)C)CC3)C2=O)cc1 [Example 84, 2-(4-Butoxy-phenyl)-8-(2-methyl-propane-1-sulfonyl)-2,8-diaza-spiro[4.5]decan-1-one] | 200
